Test results as given in ChEMBL document CHEMBL1201862, “PubChem BioAssay data set” (2004).
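How tested: cells in 96-well plates exposed to compound for 48 hours at five concentrations. Here, GI50 denotes the concentration required for 50% inhibition of growth.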 The source made the active and inactive calls. No stated cut-off is given here; in the data, active = GI50 up to about 1.1 µM and inactive = higher.

How the values were obtained:
Assay in all cases: inhibition of tumour cell growth, NCI panel, 48 h
786-0 = test system: 786-0
A549 = test system: A549
ACHN = test system: ACHN
BT-549 = test system: BT-549
CCRF-CEM = test system: CCRF-CEM
DU-145 = test system: DU-145
EKVX = test system: EKVX
HCC 2998 = test system: HCC 2998
HCT-15 = test system: HCT-15
HL-60 = test system: HL-60
HOP-92 = test system: HOP-92
HT-29 = test system: HT-29
Hs-578T = test system: Hs-578T
IGROV-1 = test system: IGROV-1
K562 = test system: K562
KM12 = test system: KM12
M14 = test system: M14
MDA-MB-435 = test system: MDA-MB-435
MDA-N = test system: MDA-N
MOLT-4 = test system: MOLT-4
Malme-3M = test system: Malme-3M
NCI-H226 = test system: NCI-H226
NCI-H23 = test system: NCI-H23
NCI-H460 = test system: NCI-H460
NCI-H522 = test system: NCI-H522
NCI/ADR-RES = test system: NCI/ADR-RES
OVCAR-3 = test system: OVCAR-3
OVCAR-4 = test system: OVCAR-4
OVCAR-5 = test system: OVCAR-5
OVCAR-8 = test system: OVCAR-8
RXF 393 = test system: RXF 393
SF-268 = test system: SF-268
SF-295 = test system: SF-295
SF-539 = test system: SF-539
SK-MEL-2 = test system: SK-MEL-2
SK-OV-3 = test system: SK-OV-3
SN12C = test system: SN12C
SNB-19 = test system: SNB-19
SNB-75 = test system: SNB-75
SR = test system: SR
TK-10 = test system: TK-10
U-251 = test system: U-251
UACC-257 = test system: UACC-257
UACC-62 = test system: UACC-62
UO-31 = test system: UO-31
A498 = test system: A498
CAKI-1 = test system: CAKI-1
COLO 205 = test system: COLO 205
HCT-116 = test system: HCT-116
HOP-62 = test system: HOP-62
LOX IMVI = test system: LOX IMVI
MDA-MB-231 = test system: MDA-MB-231
PC-3 = test system: PC-3
RPMI-8226 = test system: RPMI-8226
SK-MEL-28 = test system: SK-MEL-28
SK-MEL-5 = test system: SK-MEL-5
SW-620 = test system: SW-620

Measured: GI50

CCOC(=O)c1c(-c2ccccc2)c(-c2ccccc2)cn1C
inactive: 786-0 > 10 µM | A549 > 10 µM | ACHN > 10 µM | BT-549 > 10 µM | CCRF-CEM > 10 µM | DU-145 8.95 µM | EKVX > 10 µM | HCC 2998 > 10 µM | HL-60 > 10 µM | HOP-92 > 10 µM | HT-29 8.67 µM | Hs-578T 4.92 µM | IGROV-1 > 10 µM | K562 > 10 µM | KM12 > 10 µM | M14 > 10 µM | MDA-MB-435 > 10 µM | MDA-N > 10 µM | MOLT-4 > 10 µM | Malme-3M > 10 µM | NCI-H226 > 10 µM | NCI-H23 > 10 µM | NCI-H460 > 10 µM | NCI-H522 > 10 µM | NCI/ADR-RES 5.82 µM | OVCAR-3 > 10 µM | OVCAR-4 > 10 µM | OVCAR-5 > 10 µM | OVCAR-8 > 10 µM | RXF 393 3.93 µM | SF-268 > 10 µM | SF-295 > 10 µM | SF-539 > 10 µM | SK-MEL-2 8.15 µM | SK-OV-3 > 10 µM | SN12C > 10 µM | SNB-19 > 10 µM | SNB-75 > 10 µM | SR 3.51 µM | TK-10 > 10 µM | U-251 > 10 µM | UACC-257 > 10 µM | UACC-62 > 10 µM | UO-31 > 10 µM
> 10 µM: HCT-15

O=c1[nH]n(Cc2ccccn2)c2ccc([N+](=O)[O-])cc12
inactive: 786-0 > 100 µM | A498 > 100 µM | A549 > 100 µM | ACHN > 100 µM | CAKI-1 > 100 µM | CCRF-CEM > 100 µM | COLO 205 > 100 µM | DU-145 > 100 µM | EKVX > 100 µM | HCC 2998 > 100 µM | HCT-116 > 100 µM | HL-60 > 100 µM | HOP-62 > 100 µM | HOP-92 > 100 µM | HT-29 > 100 µM | Hs-578T > 100 µM | IGROV-1 > 100 µM | K562 > 100 µM | KM12 > 100 µM | LOX IMVI > 100 µM | M14 > 100 µM | MDA-MB-231 > 100 µM | MDA-N > 100 µM | MOLT-4 > 100 µM | Malme-3M > 100 µM | NCI-H226 > 100 µM | NCI-H23 > 100 µM | NCI-H460 > 100 µM | NCI-H522 > 100 µM | NCI/ADR-RES > 100 µM | OVCAR-3 > 100 µM | OVCAR-4 > 100 µM | OVCAR-5 > 100 µM | OVCAR-8 > 100 µM | PC-3 > 100 µM | RPMI-8226 > 100 µM | RXF 393 > 100 µM | SF-268 > 100 µM | SF-539 > 100 µM | SK-MEL-28 > 100 µM | SK-MEL-2 > 100 µM | SK-MEL-5 > 100 µM | SN12C > 100 µM | SNB-19 > 100 µM | SNB-75 > 100 µM | SR > 100 µM | SW-620 > 100 µM | TK-10 > 100 µM | U-251 > 100 µM | UACC-257 > 100 µM | UACC-62 > 100 µM | UO-31 > 100 µM
> 100 µM: HCT-15
